Source: patent US9975860B2, “Anti-angiogenic compounds” (UNIVERSITY COLLEGE DUBLIN—NATIONAL UNIVERSITY OF IRELAND, …, priority 2014, dated 2018)
“Also recorded” adds a separate entry of the source.

Legend:
[1] = test system: human microvascular endothelial cells (HMECs); assay: In vitro tubule formation in human microvascular endothelial cells; assay type: cell-based; conditions: 1, 3.16 and 10 μM, 16 hours, HMEC on matrigel
Procedure: Dermal-derived Human Microvascular Endothelial Cells (HMEC) were maintained at 37° C./5% CO2 in MCDB-131 medium (Gibco/cat: 10372) supplemented with 10% FCS, L-Glutamine (Gibco/cat: 25030-032), 1 μl/ml Hydrocortisone (Sigma/cat: H0396), 10 ng/ml EGF (BD Biosciences 354001) and 1% Pen-Strep (Gibco/cat: 151040-148). The wells of a μ-slide angiogenesis plate (IBIDI Cat no: 81506) were coated with a layer of matrigel matrix (BD 356234) which was left to polymerize for 45 minutes at 37° C. HMECs were grown to 80% confluence, washed with DPBS (Invitrogen) and trypsinised using 2 ml TrypLE™ Express (1×) (Invitrogen). Cells were centrifuged following flask detachment at 1200 rpm for 4 minutes. The cell pellet was resuspended in 3 ml full media and a cell count was performed using a haemocytometer. 7.5×10^3 cells were pipetted into each matrigel coated well of the μ-slide angiogenesis plate and treated with either 0.1% DMSO or 1, 3.16 or 10 μM compound 4 or compound 18. The slide was kept at 37° C./5% CO2 during cell tube formation. After 16 hours, the cells were imaged by phase contrast microscopy using the Zeiss Axiovert 200 M microscope. Total tubule length was quantified using Zeiss Axiovision image analysis software. Calcein AM stain (C3099 Invitrogen) was prepared at 2 μg/ml final concentration and incubated with HMEC cells following tubule formation for 30 minutes at 37° C. […]

Ang-2 = assay: Multiplex ELISA of HMEC media: Ang-2; assay type: cell-based, human; conditions: compound-treated HMECs, 16 hours
Procedure: (§1) Dermal-derived Human Microvascular Endothelial Cells (HMEC) were maintained at 37° C./5% CO2 in MCDB-131 medium (Gibco/cat: 10372) supplemented with 10% FCS, L-Glutamine (Gibco/cat: 25030-032), 1 μl/ml Hydrocortisone (Sigma/cat: H0396), 10 ng/ml EGF (BD Biosciences 354001) and 1% Pen-Strep (Gibco/cat: 151040-148). The wells of a μ-slide angiogenesis plate (IBIDI Cat no: 81506) were coated with a layer of matrigel matrix (BD 356234) which was left to polymerize for 45 minutes at 37° C. HMECs were grown to 80% confluence, washed with DPBS (Invitrogen) and trypsinised using 2 ml TrypLE™ Express (1×) (Invitrogen). Cells were centrifuged following flask detachment at 1200 rpm for 4 minutes. The cell pellet was resuspended in 3 ml full media and a cell count was performed using a haemocytometer. 7.5×10^3 cells were pipetted into each matrigel coated well of the μ-slide angiogenesis plate and treated with either 0.1% DMSO or 1, 3.16 or 10 μM compound 4 or compound 18. The slide was kept at 37° C./5% CO2 during cell tube formation. After 16 hours, 50 μl of media was removed from each of the Ibidi wells and 25 μl of the media was run in each well of a Meso Scale Discovery (MD, USA) custom multiplex ELISA containing the following analytes: Ang-1, Ang-2, VEGF, bFGF, PAI-1, sICAM and sVCAM. The ELISA was run as per manufacturer's instructions.

Ang-1 = assay: Multiplex ELISA of HMEC media: Ang-1; assay type: cell-based, human; conditions: compound-treated HMECs, 16 hours
Procedure: as §1

bFGF = assay: Multiplex ELISA of HMEC media: bFGF; assay type: cell-based, human; conditions: compound-treated HMECs, 16 hours
Procedure: as §1

sICAM-1 = assay: Multiplex ELISA of HMEC media: sICAM-1; assay type: cell-based, human; conditions: compound-treated HMECs, 16 hours
Procedure: as §1

[2] = test system: human retinal (ARPE-19) cells; assay: MTT cell viability assay in ARPE-19; assay type: cell-based; conditions: 5, 10, 25, 50, 75 or 90 μM, 96 hours
Procedure: A 3-(4,5-dimethylthiozol-2-yl)-2,5-diphenyltetrazolium bromide (MTT) dye reduction assay was carried out to determine the cytotoxicity of each compound on either human microvascular endothelial cells (HMECs) or human retinal pigmented epithelium cells (ARPE-19). Cells were maintained in a 95% air and 5% CO2 atmosphere at 37° C. in Dulbecco modified Eagle medium (DMEM, Sigma Aldrich) with 10% fetal bovine serum, 2 mM Gibco® L-glutamine and 100 units/ml penicillin, 1 mg/ml streptomycin (Invitrogen) supplementation. On day 1, cells were trypsinized (Trypsin-EDTA 1×) and seeded 1.4×10^4 cells per well of a 96 well plate and incubated overnight. On day 2, cells were serum staved in DMEM with L-glutamine and penicillin-streptomycin supplementation for 24 h. On day 3, cells were drug treated for 24 h (HMECs) or 96 h (ARPE-19 cells) with 0.1% DMSO or 10 μM to 90 μM of each compound 4, 8, 15, 18 or 20, with 4 replicate wells of each compound. After 24-96 h, cells were incubated with […] 5 mg/ml MTT labelling Reagent (Roche) for 2 h. Subsequently, when purple formazan crystals formed cells were incubated with 1× solubilisation solution (Roche) for 4 h and absorbance read at 570 nm using a microplate reader.

human HT29-Luc2 cells = assay: Clonogenic assay of cell viability in HT29-Luc2; assay type: cell-based; conditions: 10 μM, 24-96 hours
Procedure: HT29-Luc2 CRC cells were maintained using McCoy's 5A (Gibco 36600-088) medium supplemented with 10% FBS (Gibco 10270-106) at 37° C./5% CO2. Cells were washed in DPBS and trypsinised using 2 ml TrypLE™ Express (1×) (Invitrogen). Cells were centrifuged following detachment at 1200 rpm for 4 minutes. The cell pellet was resuspended in full media and a cell count was performed using a haemocytometer. 1.5×10^3 cells were seeded per well of a 6 well plate and left to adhere for 24 hours. Cells were then treated with 10 μM of compound 4 or 18 for 24 hours. The drugs were then removed and cells were allowed to grow in fresh media for 10 days in total, clones were then fixed using 4% paraformaldehyde and stained by incubating with 0.5% crystal violet solution (Pro-Lab diagnostics PL.7000) at RT for 2 hours. Clones counting was performed using the ColCount™ system (Oxford Optronix).

Row | Structure (SMILES) | tubule formation (total tubule length) [1] | expression of Ang-2 (Ang-2) | expression of Ang-1 (Ang-1) | expression of bFGF (bFGF) | expression of sICAM-1 (sICAM-1) | cell viability (MTT assay) [2] | cell viability in a clonogenic assay (human HT29-Luc2 cells) | tubule formation (total tubule length) ([1]; hydrochloride) | expression of Ang-2 (Ang-2; hydrochloride)
1 | Oc1ccccc1C#Cc1cnccn1 [Compound 18, 2-[2-(Pyrazin-2-yl)ethynyl]phenol] | significantly reduce tubule formation; also recorded: inhibit in vitro tubule formation in a statistically significant manner | significantly reduce; also recorded: reduce expression of Ang-2 and PAI-1 in human endothelial microvascular cells in a statistically significant manner | not significantly different to control-treated HMECs | not significantly different to control-treated HMECs | not significantly different to control-treated HMECs | does not affect cell viability | does not affect cell viability |  | 
2 | Cl.Oc1ccccc1/C=C/c1cnccn1 [Compound 4, (E)-2-[2-(Pyrazin-2-yl)vinyl]phenol hydrochloride] |  |  | not significantly different to control-treated HMECs | not significantly different to control-treated HMECs | not significantly different to control-treated HMECs | does not affect cell viability | does not affect cell viability | significantly reduce tubule formation; also recorded: inhibit in vitro tubule formation in a statistically significant manner | significantly reduce; also recorded: reduce expression of Ang-2 and PAI-1 in human endothelial microvascular cells in a statistically significant manner
